One series concerns LOVO (colon) cells. In words: Cytotoxic activity in vitro, MTT assay, LOVO (colon). Type of series: cell-based. The settings on record: Homo sapiens. The protocol: (§1) was tested, in comparison with doxorubicin, against a variety of human tumors of different histotypes including ovarian carcinoma, lung cancer , breast cancer, cervical carcinoma, colon cancer.
(§2) Cell survival, following test compound exposure, was evaluated by the growth inhibition test, with the exception of small cell lung cancer cell lines (SCLC). Cells in the logarithmic phase of growth were harvested and placed into 6-well. Twenty-four h after seeding, cells were exposed to test compounds for different times. After replacement with drug-free medium, cells were harvested and counted 72 h following compound exposure. In the case of SCLC, MCF-7 and LOVO, the MTT assay has been used and the colorimetric evaluation of survival was performed at the end of the incubation time (24 or 96 h). The results obtained from cytotoxicity experiments are expressed as IC50 (i.e., concentration required for 50% inhibition of cell growth).
(§3) The test compounds were dissolved in distilled water and then diluted in culture medium.
In general terms: Tetrazolium assays rely on reduction of a dye to a coloured formazan, in cell work by metabolically active cells.

The test system of series [1] is H-460 (non-small cell lung cancer) cells. The series can be described thus: Cytotoxic activity in vitro, growth inhibition test, H-460 (non-small cell lung cancer). Type of series: cell-based. The settings on record: Homo sapiens. The protocol: as §1, §2, §3
The subject of the next series is A431 (cervix) cells. The series can be described thus: Cytotoxic activity in vitro, growth inhibition test, A431 (cervix). Type of series: cell-based. The following applies: Homo sapiens. The protocol: as §1, §2, §3
The subject of another series is A2780 (ovarian) cells. In words: Cytotoxic activity in vitro, growth inhibition test, A2780 (ovarian). Type of series: cell-based. The settings on record: Homo sapiens. The protocol:
as §1, §2, §3

The subject of a further series is MCF-7 (breast) cells. The series can be described thus: Cytotoxic activity in vitro, MTT assay, MCF-7 (breast). The following applies: Homo sapiens. Type of series: cell-based. As for the experimental part: as §1, §2, §3
Series [2] relates to POVD (small cell lung cancer) cells. The series can be described thus: Cytotoxic activity in vitro, MTT assay, POVD (small cell lung cancer). Type of series: cell-based. The following applies: Homo sapiens. As for the experimental part:
as §1, §2, §3

The subject of series [3] is human ovarian carcinoma A2780. The series can be described thus: Effect against human ovarian carcinoma A2780 (in vivo), athymic mice. Also on record: species or system human tumor in athymic mice. The following applies: for toxicity deaths / tumor inhibition (Tumor Weight Inhibition %, TWI%): i.v., optimal dose: DXR 7 mg/Kg, IIa 8.5 mg/Kg (days 11, 18, 25), IIc 5 mg/Kg (days 11, 15, 18, 21, 25); for tumor inhibition (Tumor Weight Inhibition %, TWI%): determined 7-10 days after last treatment; for antitumor activity compared with doxorubicin (in words): against A2780 ovarian carcinoma. As for the experimental part:
(§4) For in vivo studies athymic mice were injected subcutaneous with tumor fragments in both flanks. Growth of tumors was followed by twice weekly caliper measurement of length and width. Tumor weight was calculated using the formula: mg=volume in mm^3 =width^2 ×length/2 (considering density=1).
(§5) The test compounds were delivered, at the optimal doses and schedules, intravenously (i.v.) to tumor-bearing mice starting at different times in the different tumors using (see experiments for details). The effects achieved by the treatments were expressed as Tumor Weight Inhibition % (TWI%) in treated versus control mice, determined 7-10 days after the last drug treatment.

Series [4] concerns human small cell lung carcinoma POVD. The series can be described thus: Effect against human small cell lung carcinoma POVD (in vivo), athymic mice. Also on record: species or system human tumor in athymic mice. The following applies: for antitumor activity (in words): SCLC tumor POVD; for toxicity deaths / tumor inhibition (Tumor Weight Inhibition %, TWI%): i.v., optimal dose: DXR 7 mg/Kg, IIa 8.5 mg/Kg (days 10, 17, 24), IIc 5 mg/Kg (days 10, 14, 17, 21, 24); for tumor inhibition (Tumor Weight Inhibition %, TWI%): determined 7-10 days after last treatment. The protocol:
as §4, §5

The mark [5] stands for this setting: LOVO (colon), drug exposure 24 h, read-out: IC50.
Setting [6] is: NCI-H460, H-460 (non-small cell lung cancer), drug exposure 24 h, read-out: IC50.
Setting [7] is: A-431, A431 (cervix), drug exposure 24 h, read-out: IC50.
The mark [8] stands for this setting: A2780 (ovarian), drug exposure 24 h, read-out: IC50.
The mark [9] stands for this setting: MCF7, MCF-7 (breast), drug exposure 24 h, read-out: IC50.
Setting [10] is: POVD (small cell lung cancer), drug exposure 96 h, read-out: IC50.

Molecules are shown by their SMILES. Values after ≈ are worked out from the molar mass of the structure shown. Counter-ions that a name gives are not always drawn. Like-named read-outs stand apart in the source and are kept apart here.

The text below walks through data of patent US5801152A, “Antracycline disaccharides, process for their preparation, and pharmaceutical compositions containing them” (A. Menarini Industrie Farmaceutiche Riunite S.r.l., priority 1993, dated 1998).

In the case of `C[C@@H]1O[C@@H](O[C@@H]2[C@H](C)O[C@@H](O[C@H]3C[C@](O)(C(=O)CO)Cc4c(O)c5c(c(O)c43)C(=O)c3ccccc3C5=O)C[C@@H]2O)C[C@H](O)[C@@H]1O` [IIb, 7-0-[2,6-dideoxy-4-0-(2,6-dideoxy-a-L-lyxo-exopyranosyl)-a-L-lyxo-exopyranosyl]-4-demethoxy-doxorubicinone hydrochloride], the IC50 in the series on LOVO (colon) cells (setting [5]) was found to be 0.0085 µg/mL; in series [1] (setting [6]), 0.018 µg/mL; in the series with A431 (cervix) cells (setting [7]), 0.026 µg/mL; in the series on A2780 (ovarian) cells (setting [8]), 0.01 µg/mL; in the series with MCF-7 (breast) cells (setting [9]), 0.015 µg/mL; in series [2] (setting [10]), 0.02 µg/mL.

For `COc1cccc2c1C(=O)c1c(O)c3c(c(O)c1C2=O)C[C@@](O)(C(=O)CO)C[C@@H]3O[C@H]1C[C@H](N)[C@H](O)[C@H](C)O1` [DXR, doxorubicin, reference compound], the IC50 in the series on LOVO (colon) cells (LoVo, 24 h) is 0.01 µg/mL (≈ 0.0184 µM); in series [1] (NCI-H460, 24 h) it was 0.02 µg/mL (≈ 0.0368 µM); in the series on A431 (cervix) cells (A-431, 24 h), 0.036 µg/mL (≈ 0.0662 µM); in the series on A2780 (ovarian) cells (A2780, 24 h) it was 0.03 µg/mL (≈ 0.0552 µM); in the series on MCF-7 (breast) cells (MCF7, 24 h), 0.01 µg/mL (≈ 0.0184 µM); in series [2] (96 h) it was 0.034 µg/mL (≈ 0.0626 µM). Also, the toxicity deaths in series [3] and in series [4] was 0/5 throughout. Further, the “tumor inhibition (Tumor Weight Inhibition %, TWI%)” value in series [3] worked out at 68%; in series [4] it was 44%. In addition, in series [4], the “antitumor activity (in words)” value is “refractory”.

In the case of `CC(=O)[C@]1(O)Cc2c(O)c3c(c(O)c2[C@@H](O[C@H]2C[C@H](O)[C@H](O[C@H]4C[C@H](N)[C@H](O)[C@H](C)O4)[C@H](C)O2)C1)C(=O)c1ccccc1C3=O` [IIa, 7-0-[2,6-dideoxy-4-0-(2,3,6-trideoxy-3-amino-a-L-lyxo-exopyranosyl)-a-L-lyxo-exopyranosyl]-4-demethoxy-daunorubicinone hydrochloride], the IC50 was determined as 0.0065 µg/mL in the series with LOVO (colon) cells (setting [5]); 0.015 µg/mL in series [1] (setting [6]); 0.012 µg/mL in the series with A431 (cervix) cells (setting [7]); 0.001 µg/mL with A2780 (ovarian) cells (setting [8]); 0.01 µg/mL in the series on MCF-7 (breast) cells (setting [9]); 0.015 µg/mL in series [2] (setting [10]). Moreover, the “antitumor activity compared with doxorubicin (in words)” value in series [3] is reported as “at least the same effectiveness than doxorubicin”. Moreover, the toxicity deaths in series [3] and in series [4] was 0/5 each time. In addition, the “tumor inhibition (Tumor Weight Inhibition %, TWI%)” value in series [3] amounted to 75%; in series [4], 80%. The “antitumor activity (in words)” value in series [4] was “very high antitumor activity”.

Turning to `C[C@@H]1O[C@@H](O[C@@H]2[C@H](C)O[C@@H](O[C@H]3C[C@](O)(C(=O)CO)Cc4c(O)c5c(c(O)c43)C(=O)c3ccccc3C5=O)C[C@@H]2O)C[C@H](N)[C@@H]1O` [IIc, 7-0-[2,6-dideoxy-4-0-(2,3,6-trideoxy-3amino-a-L-lyxo-exopyranosyl)-a-L-lyxo-exopyranosyl]-4-demethoxy-doxorubicinone hydrochloride], the IC50 worked out at 0.01 µg/mL in the series with LOVO (colon) cells (setting [5]); 0.01 µg/mL in series [1] (setting [6]); 0.016 µg/mL in the series on A431 (cervix) cells (setting [7]); 0.005 µg/mL with A2780 (ovarian) cells (setting [8]); 0.0056 µg/mL in the series on MCF-7 (breast) cells (setting [9]); 0.011 µg/mL in series [2] (setting [10]). Also, in series [3], the “antitumor activity compared with doxorubicin (in words)” value is given as “antitumor activity greatly superior to that of the parent compund”. The toxicity deaths in series [3] and in series [4] was 0/5 in each case. Moreover, the “tumor inhibition (Tumor Weight Inhibition %, TWI%)” value was 99% in series [3] and 91% in series [4]. In series [4], the “antitumor activity (in words)” value was “very high antitumor activity”.

Usually IC50 stands for the point on the concentration scale where inhibition reaches its midpoint.
